Publication PMC4728560 (Scientific Reports, 2016)
Values belong to the compound of their own block, whether it stands above or below them.

Experiments:
Bcl-xL [1] = molecular target: T1, Bcl-xL (Homo sapiens, UniProt Q07817, DEL27-82); assay: Isothermal Titration Calorimetry, peptides and Bcl-xL; format: binding; settings: ITC, 30 °C, 50 mM ammonium bicarbonate pH 9, TCTP-BH3-R21A 1.26 mM (Fig. 1B)
T1 construct: one containing the fragment 1-26, and the other the fragment 81-209; 6His (N, cleaved yes); made in house; host or cells: Escherichia coli BL21 (DE3) pRARE2
Experimental: In red, the conserved hydrophobic residues of the BH3 domain (named h1 (P1), h2 (P2), h3 (P3) and h4 (P4)). In green, the GD signature of BH3 domains. In blue, the conserved charged residues. […] Each experiment was carried out at 30 °C in 50 mM ammonium bicarbonate pH 9.
Titrations were done by isothermal titration calorimetry (ITC) assays using an ITC200 calorimeter from GE-Microcal. See Supplementary Information for full details. […]
hybrid-FLAG peptides, rabbit anti-FLAG (Sigma) and anti-rabbit-FITC (Abcam) were used.
Isothermal Titration Calorimetry experiments
Titrations were done by isothermal titration calorimetry (ITC) assays using an ITC200 calorimeter from GE-Microcal. Bcl-xL was used at 0.065 mM in 50mM bicarbonate ammonium […]
pH 9. […] Titrations were carried out at 30°C. Data were analyzed using Microcal Origin software provided by the ITC manufacturer (GE-Microcal).
High-throughput crystallization screening was performed using a Mosquito liquid transfer robot (TTP Labtech) and the sitting-drop vapor diffusion method. Crystals were obtained at 20°C by mixing 0.2μL of reservoir solution (100mM Pipes pH 7, 1.5M Tris-sodium citrate) with 0.2μL of […]
ammonium bicarbonate pH 9.3 and by equilibrating the mixture against 40μl of reservoir

[2] = test system: Bax mediated cytochrome c release, Bcl-xL; assay: Cytochrome c release from purified mitochondria by tBid and Bax in the presence of Bcl-xL; format: biochemical; settings: mouse liver mitochondria; 5 nM tBid, 50 nM Bax, 300 nM Bcl-xL; 15 min, 30 °C; Western blot
Experimental: (A–E) in vitro reconstitution assay on liposome permeabilization. […] The treated Bcl-xL was then added to reactions containing ANTS-DPX liposomes, 100 nM Bax and 20 nM of either cBid (A,B) or cBidmt1(C,D) at pH 7. Liposome permeabilization was quantified by fluorescence after 5h incubation at 37 °C where 100% release was defined as the fluorescence change due to lipid solubilization with 1% Triton X-100. […] Error bars, std. dev. n = 3. To compare between the TCTP treated groups and the Control group statistically, two-way ANOVA test was performed for (A–D) and one-way ANOVA test was performed for (E). […] Colored asterisks above each data point indicate the statistical significance (*p < 0.05; **p < 0.01, no asterisks if p ≥ 0.05). A complete statistical analysis is provided in Supplementary Table 2–4. […] Cyto c extra-mito: in the supernatant, analysed by Western blot. […]
to highlight the pre-incubation), pH 9, 30 C° before being added to the mitochondria at their final concentrations. […] Cytochrome c was detected in the mitochondrial fraction (Cyto c intra-mito) or in the supernatant (Cyto c extra-mito) by Western blot analysis. […]
Cytochrome c release assay. […] Mitochondrial pellets and the corresponding supernatant fractions were subjected to SDS-polyacrylamide gel electrophoresis and analyzed by Western blotting for cytochrome c.

[3] = test system: thymocytes from TCTP^+/− mice; assay: Complementation (viability) of γ-irradiated TCTP+/− thymocytes; format: cell-based, mouse; settings: γ-irradiation 2.5 Gy, overnight culture, 0 to 1000 nM
Excerpt: Figure 4 Molecular/functional analysis of the h1 (P1) subregion of BH3-TCTP. […]
Peptides used for in vitro assays:
WT-TCTP (11-31): […]
R21A-TCTP (11-31): […]
Hybrid Bax/TCTP: […]
Peptides used for in vivo assays:
WT-TCTP (1-31) : […]
Hybrid Bax-TCTP: […]
TCTP-FLAG peptides used for in vivo assays:
WT-TCTP (1-31)-FLAG : […] DYKDDDDK-OH
TCTP-Bax-TCTP-FLAG: […]-OH […]
subdomain in the BH3 motif is underlined. Peptides were purchased from Smartox […]
Complementation and transduction experiments
In order to complement the haploinsufficient TCTP+/- mice with exogenous TCTP, we took advantage of the fact that the first N-terminal fragment of TCTP functions as a Protein Transduction Domain (PTD), enabling TCTP to penetrate into the cell by a mechanism hitherto […]
not well understood23,27-29. […]
of γ irradiation) and cultured, at a concentration of 10^7 cells/ml, overnight in the presence of […]
20) at concentrations ranging from 0-1000nM. For the transduction assays using WT-TCTP- […]
concentrations were 10 microM, 50 microM and 100 microM.
γ-irradiated thymocytes were fixed by adding 500ul of PFA 4% and incubated for 20 min at room temperature. The cells were washed twice with PBS and permeabilized for 10 min with 0.2% triton X-100 in PBS at room temp. The cells were washed twice with PBS. Proteins were blocked in Blocking buffer (1% BSA 0.5% Tween in PBS) 1h at room temperature. The primary antibody was added with blocking buffer and placed in a rotating wheel overnight in a cold room.
Cells were then washed 3 times with PBS and incubated with secondary antibody with blocking buffer 1h at room temperature. The cells were washed 3 times with PBS and suspended in 200 µL PBS and used for Flow Cytometry or further used for immunohistochemistry: 5 µl of each sample were mixed with 5 µl of ProLong® Gold antifade reagent (Life Technologies) and visualized, using the IX73 inverted fluorescence microscope and the cellSens™ Dimension […]
FACS analysis (BD Accuri™ C6 Cytometer (BD Biosciences) of incorporation of exogenous

Bcl-xL [4] = molecular target: T1, Bcl-xL; assay: Heterocomplex formation with Bcl-xL (native MS, SEC-MALS, gel filtration); format: binding; settings: native MS: Bcl-xL(Δ27-81ΔCT), equimolar 100 μM, 30 °C, checked at 5 μM (for TCTP-R21A)
Experimental: When not specified, proteins tested for binding experiments were mixed at 100 μM, dialyzed against 10 mM CHES pH 9, 50 mM NaCl, 1 mM DTT or TCEP, depending on the analysis, and heated overnight at 30 °C.
For binding experiments, 100 to 200PL of protein mixture were loaded on a size exclusion chromatography (S200, GE Healthcare) column, while elution profiles were measured by UV absorption at 280 nm.
SEC-MALS experiments were performed on a multi-angle light scattering detector (miniDAWN TREOS, Wyatt Technologies) coupled in-line with SEC and an interferometric refractometer (Optilab T-rEX, Wyatt Technologies). See Supplementary Information for full details.
Prior to any mass spectrometry experiment, protein buffer was exchanged twice against a 50 mM ammonium acetate (NH4Ac) solution at pH 9.0 using microcentrifuge gel filtration columns (Zeba 0.5 ml, Thermo Scientific, Rockford, IL). Protein concentration was determined spectrophotometrically. […]
Supplementary Table 1. Measured molecular weights in denaturing conditions Sample Theoretical molecular Measured molecular Associated mass (Da) mass (Da) species […]
Gel filtration. For binding experiments, 100 to 200PL of protein mixture were loaded on a size exclusion chromatography (S200, GE Healthcare) column, while elution profiles were measured by UV absorption at 280nm. […]

Bcl-xL [5] = assay: In cellulo BRET between Luciferase-fused TCTP and YFP-fused Bcl-xL; format: cell-based; settings: MCF-7 cells; 16 h treatment
Excerpt: See Supplementary Information for full details.
Twenty-four hours later, cells
Protein expression and purification

T1 sequence (Q07817 with tags, fused parts or gaps DEL27-82): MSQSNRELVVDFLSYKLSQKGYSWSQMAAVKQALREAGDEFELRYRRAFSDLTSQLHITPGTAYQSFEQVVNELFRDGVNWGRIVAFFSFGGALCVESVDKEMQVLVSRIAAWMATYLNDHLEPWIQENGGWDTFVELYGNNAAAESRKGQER

binding to Bcl-xL (Bcl-xL [1]): does not bind to Bcl-xL
Compound: DEMFSDIYKIAEIADGLCLEV [TCTP11–31-R21A, R21A mutant of TCTP11–31 peptide]

Compound: MIIYRDLISHDEMFSDIYKI [TCTP1–20, truncated TCTP peptide]
potentiation of Bcl-xL (cytochrome c release) [2]: do not potentiate Bcl-xL

Compound: MIIYRDLISHDEMKKLSECIREIADGLCLEV [hybrid mutant]
rescue of TCTP+/− haploinsufficient phenotype / anti-apoptotic function [3]: not able anymore to rescue the haploinsufficient phenotype | rescue of TCTP+/− haploinsufficient phenotype / anti-apoptotic function ([3]; listed as hybrid Bax(h1)-TCTP): completely abrogated its anti-apoptotic function

inhibition of BRET signals between TCTP and Bcl-xL (Bcl-xL [5]): significantly inhibited
Compound: CN(C)CC[C@H](CSc1ccccc1)Nc1ccc(S(=O)(=O)NC(=O)c2ccc(N3CCN(Cc4ccccc4-c4ccc(Cl)cc4)CC3)cc2)cc1[N+](=O)[O-] [ABT-737, reference compound]
complex formation with Bcl-xL (Bcl-xL [4]): abrogated formation of the TCTP/Bcl-xL complexes

Compound: MIIYRDLISHDEMFSDIYKIREIADGLCLEV [TCTP1–31]
rescue of TCTP+/− haploinsufficient phenotype / anti-apoptotic function [3]: rescue completely the TCTP^+/− haploinsufficient phenotype
